Four compounds from patent publication US20250127789A1, “COMPOSITIONS USEFUL FOR MODULATING SPLICING” (SKYHAWK THERAPEUTICS, INC., priority 2021, published 2025) can be followed below.

Test [1] deals with ATXN3 exon 4 skipped transcripts in SK-N-MC cells. Kind of test: ATXN3 quantitative splicing assay (qPCR of exon 4 skipped transcripts). The class given is cell-based. The note with it: Human neuroblastoma SK-N-MC cells, 24 h treatment, read-out: ATXN 3 E4 Skipping EC50. The protocol:
Human neuroblastoma SK-N-MC cells were plated in 384-well plates at 20,000 cells/well. Twenty-four hours after plating, cells were treated with compounds for 24 hat appropriate concentrations ranging from 30 µM to 0.6 nM (0.3% DMSO). Treated cells were lysed in 15 μL of lysis buffer, and cDNA was synthesized using the Fast Advanced Cells-to-Ct kit Two μL of each cDNA was used in PCR reactions to confirm the exon 4 skipped transcripts of ATXN3. A second set of primers/probe E4E5 was used to detect the transcripts containing exon 4. The third set of primers/probe E8E9 was used to detect total gene level of ATXN3. The qPCR reactions were prepared in 384-well plates in 10 μL volume, using TaqMan™ Fast Advanced Master Mix with primers and probes shown in the table below. Reactions were run in a Quant Studio 6 qPCR instrument with default settings.
The primers and probes are listed below in Table 3.
On the technique in general: In qPCR the cycle at which signal appears reflects the starting amount.

Test [2] has as its system total ATXN3 protein in SK-N-MC cells. Description: ATXN3 total protein assay (MSD). Format: cell-based. The note with it: Human neuroblastoma SK-N-MC cells, 48 hours incubation, read-out: ATXN3 Protein Potency IC50. The protocol: Human neuroblastoma SK-N-MC cells were seeded at 10,000 cells/well in 384 well plates one day prior to compound treatment. The concentrations of compounds were tested at appropriate doses ranging from 30 μM to 0.6 nM. After incubation for 48 hours, the cells were lysed with 25 μL of lysis buffer containing protease inhibitors, and total ATXN3 protein levels were assessed by Mesoscale Discovery (MSD) assay developed with one pair of anti-ATXN3 antibodies. The capture and detect antibodies were raised in mouse and rabbit respectively. Anti-rabbit MSD-ST antibody was used for secondary antibody.
ATXN3 recombinant protein was used for standards. The readouts were captured with 35 μL of MSD read buffer and multi-array 384-well high binding plates.

Molecules are shown by their SMILES.

Broadly, the EC50 is the concentration that produces a half-maximal response. In general, IC50 refers to the midpoint of a concentration-inhibition curve. As for `Cc1csc2c(NCc3ccccc3)nnnc12` [Compound 1, N-benzyl-7-methylthieno[3,2-d][1,2,3]triazin-4-amine], the EC50 in test [1] is not below 10 µM. The half-inhibitory concentration (IC50) in test [2] is not below 10 µM.
Take `Cc1c(C[C@H](C)N)sc2c(NCc3ccccc3)nnnc12` [Compound 2, (S)-6-(2-aminopropyl)-N-benzyl-7-methylthieno[3,2-d][1,2,3]triazin-4-amine]: the concentration giving a half-maximal response (EC50) in test [1] is not below 10 µM. For the same compound, the half-inhibitory concentration (IC50) in test [2] is not below 10 µM.
On to `Cc1c(C[C@H](C)N)sc2c(NCc3ccncc3)nnnc12` [Compound 4, (S)-6-(2-aminopropyl)-7-methyl-N-(pyridin-4-ylmethyl)thieno[3,2-d][1,2,3]triazin-4-amine], for which the EC50 in test [1] was 0.501 to 5 µM. The IC50 in test [2] lay within 0.501 to 5 µM.
Take `Cc1csc2c(NCc3ccncc3)nnnc12` [Compound 3, 7-methyl-N-(pyridin-4-ylmethyl)thieno[3,2-d][1,2,3]triazin-4-amine]: the concentration for a half-maximal effect (EC50) in test [1] is not below 10 µM. For the same compound, in test [2], the IC50 is not below 10 µM.
